From ChEMBL document CHEMBL1152960 (Bioorg Med Chem, 2009)

How the values were obtained:
[1] = molecular target: T1, Adenosine receptor A3 (Homo sapiens) (UniProt P0DMS8); experiment: Inhibition of [3H]NECA binding to human recombinant adenosine A3 receptor expressed in HEK293T cells at 100 uM by scintillation counting; format: cell-based; conditions: HEK-293T
T1 sequence (whole entry): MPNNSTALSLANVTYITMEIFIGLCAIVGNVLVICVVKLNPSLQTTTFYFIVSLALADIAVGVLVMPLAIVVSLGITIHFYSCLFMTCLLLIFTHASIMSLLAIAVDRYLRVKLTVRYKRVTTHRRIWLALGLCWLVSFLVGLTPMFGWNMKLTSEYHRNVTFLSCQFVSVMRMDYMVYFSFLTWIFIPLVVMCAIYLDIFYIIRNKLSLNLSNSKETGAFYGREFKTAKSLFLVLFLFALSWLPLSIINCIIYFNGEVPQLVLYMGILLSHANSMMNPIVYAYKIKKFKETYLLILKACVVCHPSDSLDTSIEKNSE

[2] = molecular target: T2, Adenosine receptor A1 (Homo sapiens, UniProt P30542); experiment: Displacement of [3H]DPCPX from human recombinant adenosine A1 receptor expressed in HEK293T cells by scintillation counting; format: cell-based, HEK-293T
T2 sequence (P30542 whole entry): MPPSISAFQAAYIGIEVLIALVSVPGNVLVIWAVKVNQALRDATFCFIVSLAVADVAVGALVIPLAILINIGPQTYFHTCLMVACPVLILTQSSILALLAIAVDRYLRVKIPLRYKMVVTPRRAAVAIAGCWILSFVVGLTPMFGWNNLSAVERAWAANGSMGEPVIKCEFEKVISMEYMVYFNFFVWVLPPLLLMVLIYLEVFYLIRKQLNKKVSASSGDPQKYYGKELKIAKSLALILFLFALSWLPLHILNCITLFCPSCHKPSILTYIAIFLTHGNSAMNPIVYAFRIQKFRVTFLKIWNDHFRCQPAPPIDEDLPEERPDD

[3] = molecular target: T3, Adenosine receptor A3 (Homo sapiens, UniProt P0DMS8); experiment: Displacement of [3H]NECA from human recombinant adenosine A3 receptor expressed in HEK293T cells by scintillation counting; format: cell-based, HEK-293T
T3 sequence (P0DMS8 whole entry): T1 sequence (whole entry)

[4] = molecular target: Adenosine receptor A2a (Homo sapiens, UniProt P29274); experiment: biochemical
Chain of Adenosine receptor A2a (P29274 whole entry): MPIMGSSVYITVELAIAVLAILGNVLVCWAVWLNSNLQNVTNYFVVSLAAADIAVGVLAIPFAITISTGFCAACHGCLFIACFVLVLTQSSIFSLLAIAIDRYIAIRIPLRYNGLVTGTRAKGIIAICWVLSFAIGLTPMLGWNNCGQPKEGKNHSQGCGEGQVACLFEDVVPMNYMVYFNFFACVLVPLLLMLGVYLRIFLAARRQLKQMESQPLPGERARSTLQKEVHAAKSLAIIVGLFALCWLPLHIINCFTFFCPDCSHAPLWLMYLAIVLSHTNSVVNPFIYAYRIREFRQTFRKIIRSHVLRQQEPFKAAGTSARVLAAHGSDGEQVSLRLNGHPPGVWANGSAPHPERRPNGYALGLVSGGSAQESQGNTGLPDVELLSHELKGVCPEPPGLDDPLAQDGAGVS
Description: Displacement of [3H]CGS21680 from human recombinant adenosine A2A receptor expressed in HEK293T cells by scintillation counting

SMILES	inhibition [1]	Ki [2]	Ki [3]	Ki [4]
Cn1c(=O)c2c(ncn2C)n(C)c1=O	9%			
CCCOc1cnc2c(c1)[nH]c1c(=O)n(CCC)c(=O)n(CCC)c12		0.921 µM	0.209 µM	1.47 µM
Cn1c(=O)c2[nH]c3cnccc3c2n(C)c1=O		11.7 µM	0.526 µM	10.1 µM
CCCn1c(=O)c2[nH]c3cnccc3c2n(CCC)c1=O		1.41 µM	0.29 µM	3.63 µM
CCCOc1cncc2[nH]c3c(=O)n(CCC)c(=O)n(CCC)c3c12		0.346 µM	0.00382 µM	0.164 µM
Cn1c(=O)c2[nH]c3cccnc3c2n(C)c1=O		0.379 µM	0.0139 µM	0.893 µM
CCCn1c(=O)c2[nH]c3cccnc3c2n(CCC)c1=O		0.132 µM	0.0168 µM	0.57 µM
